# In the OPERA property sets (Mansouri et al. 2018):
row,Structure (SMILES),logP
1,C#CCOc1cc(OC(=O)N2CCC(F)(F)CC2)c(Cl)cc1Cl,3.57
2,C#CCOc1cc(OC(=O)N2CCCC2)c(Cl)cc1Cl,3.82
3,C#CCOc1cc(OC(=O)N2CCCCC2)c(Cl)cc1Cl,4.25
4,O=C(Oc1ccccc1Cl)N1CCCC1,3.13
5,COC(=O)c1cc(OC(=O)N2CCCC2)c(Cl)cc1Cl,3.95
6,O=[N+]([O-])c1ccc(Oc2ccc(C(F)(F)F)cc2Cl)cc1,4.54
7,O=C(Oc1ccc(Cl)cc1Cl)N1CCCC1,3.94
8,CC(C)OC(=O)c1cc(OC(=O)N2CCCC2)c(Cl)cc1Cl,4.67
9,C#CCOC1=Nc2cc(OC(=O)N3CCCC3)c(Cl)cc2OC1,2.93
10,CCOC(=O)C(C)OC(=O)c1cc(Oc2ccc(C(F)(F)F)cc2Cl)ccc1[N+](=O)[O-] (stereo unspecified),4.81
11,O=C(Oc1ccc(Cl)cc1)N1CCCC1,3.38
12,O=C(Oc1ccccc1)N1CCCC1,2.73
13,C#CCOc1cc(OC(=O)N2CCC(F)(F)C2)c(Cl)cc1Cl,3.42
14,CCOc1cc(Oc2ccc(C(F)(F)F)cc2Cl)ccc1[N+](=O)[O-],4.73
15,O=C(Oc1cc(O)c(Cl)cc1Cl)N1CCCC1,2.98
16,C#CCOc1cc(OC(=O)N(CC)CC)c(Cl)cc1Cl,3.95
17,COC(=O)c1cc(Oc2ccc(C(F)(F)F)cc2Cl)ccc1[N+](=O)[O-],4.26
18,Nc1c([N+](=O)[O-])ccc(Oc2ccccc2)c1Cl,4.04
19,CC(C)OC(=O)c1cc(OC(=O)N2CCCC2)c(F)cc1Cl,4.22

# Further lines, results first:
row,logP,Structure (SMILES)
1,4.33,O=[N+]([O-])c1ccc(Oc2ccc(C(F)(F)F)cc2Cl)cc1Oc1ccoc1
2,5.04,COC(=O)c1cc(Oc2ccc(C(F)(F)F)cc2Cl)ccc1Cl
3,3.57,COC(=O)c1cc(S(=O)(=O)c2ccc(C(F)(F)F)cc2Cl)ccc1[N+](=O)[O-]
4,4.21,COC(=O)c1cc(Oc2cc(C(F)(F)F)ccc2Cl)ccc1[N+](=O)[O-]
5,4.54,COC(=O)CON=C(C)c1cc(Oc2ccc(C(F)(F)F)cc2Cl)ccc1[N+](=O)[O-]
6,4.76,COC(=O)c1cc(Sc2ccc(C(F)(F)F)cc2Cl)ccc1[N+](=O)[O-]
7,3.92,O=[N+]([O-])c1ccc(Oc2ccccc2)cc1
8,4.4,Cc1cccc(Oc2ccc([N+](=O)[O-])cc2)c1
9,4.54,C=COC(=O)C(C)Oc1cc(Oc2ccc(C(F)(F)F)cc2Cl)ccc1[N+](=O)[O-] (stereo unspecified)
10,4.53,CCOC(=O)C(C)Oc1cc(Oc2ccc(C(F)(F)F)cc2Cl)ccc1[N+](=O)[O-] (stereo unspecified)
11,4.27,O=C(O)COC(=O)c1cc(Oc2ccc(C(F)(F)F)cc2Cl)ccc1[N+](=O)[O-]
12,3.65,COC(=O)c1cc(S(=O)c2ccc(C(F)(F)F)cc2Cl)ccc1[N+](=O)[O-] (stereo unspecified)
